Measured values as given in ChEMBL document CHEMBL1201862, “PubChem BioAssay data set” (2004).
Activity calls are given as the source filed them.

Columns and labels:
[1] = target: T1, Tyrosine-protein phosphatase non-receptor type 22 (Homo sapiens, UniProt Q9Y2R2); format: functional
T1 sequence (Q9Y2R2 whole entry): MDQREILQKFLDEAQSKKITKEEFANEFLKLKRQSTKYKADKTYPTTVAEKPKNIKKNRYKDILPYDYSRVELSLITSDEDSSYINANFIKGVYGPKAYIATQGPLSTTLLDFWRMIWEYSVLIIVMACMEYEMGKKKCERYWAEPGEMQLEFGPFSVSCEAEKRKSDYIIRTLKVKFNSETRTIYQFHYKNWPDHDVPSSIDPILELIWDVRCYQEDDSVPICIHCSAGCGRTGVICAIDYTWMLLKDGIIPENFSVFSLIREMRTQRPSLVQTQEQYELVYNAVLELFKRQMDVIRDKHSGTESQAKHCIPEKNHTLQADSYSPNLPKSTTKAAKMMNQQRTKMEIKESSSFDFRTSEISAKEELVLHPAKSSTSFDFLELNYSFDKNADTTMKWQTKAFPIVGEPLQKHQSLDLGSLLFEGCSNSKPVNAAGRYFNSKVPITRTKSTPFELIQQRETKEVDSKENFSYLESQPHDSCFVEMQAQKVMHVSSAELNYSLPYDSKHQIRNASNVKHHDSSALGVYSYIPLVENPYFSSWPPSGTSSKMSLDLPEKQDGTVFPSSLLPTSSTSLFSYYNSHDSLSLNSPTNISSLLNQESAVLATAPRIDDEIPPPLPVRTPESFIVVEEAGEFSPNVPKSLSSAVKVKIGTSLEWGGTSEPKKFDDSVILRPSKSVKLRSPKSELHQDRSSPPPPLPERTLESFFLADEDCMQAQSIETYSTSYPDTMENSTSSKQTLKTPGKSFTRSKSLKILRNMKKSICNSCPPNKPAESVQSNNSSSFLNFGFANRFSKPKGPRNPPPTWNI

[2] = target: T1, Tyrosine-protein phosphatase non-receptor type 22; format: functional; remark: listed apart in the source
[3] = target: T2, Tyrosine-protein phosphatase non-receptor type 7 (Homo sapiens, UniProt P35236); format: functional
T2 sequence (P35236 whole entry): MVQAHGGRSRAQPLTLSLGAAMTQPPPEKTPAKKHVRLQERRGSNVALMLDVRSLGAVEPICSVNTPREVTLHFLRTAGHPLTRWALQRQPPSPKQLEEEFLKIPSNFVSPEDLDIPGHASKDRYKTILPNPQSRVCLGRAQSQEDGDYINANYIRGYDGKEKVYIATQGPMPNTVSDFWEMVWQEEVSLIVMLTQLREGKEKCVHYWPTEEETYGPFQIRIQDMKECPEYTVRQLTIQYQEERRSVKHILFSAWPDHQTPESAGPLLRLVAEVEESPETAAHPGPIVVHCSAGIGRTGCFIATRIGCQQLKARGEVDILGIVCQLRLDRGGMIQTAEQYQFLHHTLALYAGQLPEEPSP

[4] = target: Cytochrome P450 2C19 (Homo sapiens, UniProt P33261); test: Cytochrome panel assay with activity outcomes. Panel member name: p450-cyp2c19 Compounds with AC50 equal or less than 10 uM are considered active; format: functional
[5] = target: Cytochrome P450 2D6 (Homo sapiens, UniProt P10635);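 also: CYP2D6 member of a cytochrome P450 panel assay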
[6] = target: Intestinal-type alkaline phosphatase (Mus musculus, UniProt P24822); test: mouse intestinal alkaline phosphatase activators, dose response, biochemical, luminescence, uHTS hits (AID 488783); format: functional
[7] = target: T3, Alkaline phosphatase, tissue-nonspecific isozyme (Homo sapiens, UniProt P05186); test: TNAP enzyme activators, dose response, selectivity assay for mouse IAP activator project, biochemical, TNAP isozyme, mouse IAP uHTS hits (AID 488880); format: functional
T3 sequence (P05186 whole entry): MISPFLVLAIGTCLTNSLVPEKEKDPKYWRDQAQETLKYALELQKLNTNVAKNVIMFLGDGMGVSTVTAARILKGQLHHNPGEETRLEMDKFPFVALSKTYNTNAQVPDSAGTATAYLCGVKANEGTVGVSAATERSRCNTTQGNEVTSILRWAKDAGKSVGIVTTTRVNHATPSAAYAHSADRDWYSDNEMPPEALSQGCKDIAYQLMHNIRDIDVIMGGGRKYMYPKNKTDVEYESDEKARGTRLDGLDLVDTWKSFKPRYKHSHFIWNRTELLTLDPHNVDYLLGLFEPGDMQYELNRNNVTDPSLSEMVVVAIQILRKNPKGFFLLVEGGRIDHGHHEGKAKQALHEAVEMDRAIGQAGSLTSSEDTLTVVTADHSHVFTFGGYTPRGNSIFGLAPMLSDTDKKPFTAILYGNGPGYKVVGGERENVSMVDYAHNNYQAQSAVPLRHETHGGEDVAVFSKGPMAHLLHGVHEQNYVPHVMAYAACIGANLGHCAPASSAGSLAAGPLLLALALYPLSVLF

[8] = target: T4, Histone-lysine N-methyltransferase NSD2 (Homo sapiens, UniProt O96028); format: biochemical
T4 sequence (O96028 whole entry): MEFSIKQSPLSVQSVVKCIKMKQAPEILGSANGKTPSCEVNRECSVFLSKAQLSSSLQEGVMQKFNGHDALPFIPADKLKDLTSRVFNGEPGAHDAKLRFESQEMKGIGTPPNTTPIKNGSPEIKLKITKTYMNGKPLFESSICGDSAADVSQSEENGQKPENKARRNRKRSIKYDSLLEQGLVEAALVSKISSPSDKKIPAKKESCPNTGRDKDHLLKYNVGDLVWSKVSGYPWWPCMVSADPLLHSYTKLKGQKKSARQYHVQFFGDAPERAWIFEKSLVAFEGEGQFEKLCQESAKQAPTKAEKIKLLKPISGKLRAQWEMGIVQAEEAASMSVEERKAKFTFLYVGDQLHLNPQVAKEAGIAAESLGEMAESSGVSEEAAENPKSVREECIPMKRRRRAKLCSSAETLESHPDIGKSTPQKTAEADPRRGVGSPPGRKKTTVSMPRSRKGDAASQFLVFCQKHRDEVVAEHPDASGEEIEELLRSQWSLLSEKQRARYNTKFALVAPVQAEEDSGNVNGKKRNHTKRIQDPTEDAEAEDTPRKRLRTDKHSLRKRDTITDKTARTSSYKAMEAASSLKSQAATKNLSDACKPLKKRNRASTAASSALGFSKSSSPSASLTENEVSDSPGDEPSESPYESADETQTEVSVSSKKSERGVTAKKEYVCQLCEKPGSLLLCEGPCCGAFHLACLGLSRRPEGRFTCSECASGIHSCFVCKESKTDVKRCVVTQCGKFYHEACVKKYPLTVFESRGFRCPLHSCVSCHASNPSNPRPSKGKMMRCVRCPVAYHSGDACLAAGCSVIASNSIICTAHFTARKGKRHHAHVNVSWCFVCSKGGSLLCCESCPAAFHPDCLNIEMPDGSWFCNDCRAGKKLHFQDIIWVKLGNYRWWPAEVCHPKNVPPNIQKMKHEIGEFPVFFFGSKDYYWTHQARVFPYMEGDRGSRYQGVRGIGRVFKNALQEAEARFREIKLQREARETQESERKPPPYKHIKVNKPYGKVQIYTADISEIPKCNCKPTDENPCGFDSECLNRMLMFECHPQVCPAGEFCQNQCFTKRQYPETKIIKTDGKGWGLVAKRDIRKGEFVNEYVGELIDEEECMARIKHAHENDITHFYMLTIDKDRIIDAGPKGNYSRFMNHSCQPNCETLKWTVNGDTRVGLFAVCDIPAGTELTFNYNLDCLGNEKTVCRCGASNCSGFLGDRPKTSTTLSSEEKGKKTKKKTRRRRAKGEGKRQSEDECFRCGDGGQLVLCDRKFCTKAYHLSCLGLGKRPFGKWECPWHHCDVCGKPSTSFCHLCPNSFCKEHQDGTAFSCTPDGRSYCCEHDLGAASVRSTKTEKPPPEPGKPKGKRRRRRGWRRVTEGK

[9] = C. albicans growth with fluconazole, confirmation, fluorescence, retest (AID 2467); format: functional, cell-based
[10] = NIH-3T3 fibroblast cytotoxicity, dose response, cytotoxicity control, cell-based, fluorescence, Alamar Blue, secondary assay (AID 2327); format: functional;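 also: NIH-3T3 mouse fibroblasts cultured with fluconazole at 8 µg/mL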
[11] = target: T5, Caspase-6 (Homo sapiens, UniProt P55212); test: human caspase-6 inhibitors, dose response, biochemical, VEID-R110 fluorescence, cherry-pick (AID 720632)
T5 sequence (P55212 whole entry): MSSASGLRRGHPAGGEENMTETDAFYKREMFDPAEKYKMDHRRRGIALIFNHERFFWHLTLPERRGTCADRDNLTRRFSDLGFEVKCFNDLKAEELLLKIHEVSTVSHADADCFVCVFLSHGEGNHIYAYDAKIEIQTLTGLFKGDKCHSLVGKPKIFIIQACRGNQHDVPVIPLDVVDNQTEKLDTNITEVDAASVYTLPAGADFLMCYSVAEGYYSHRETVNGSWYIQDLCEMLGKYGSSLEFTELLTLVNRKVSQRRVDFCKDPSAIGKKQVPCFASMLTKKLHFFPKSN

[12] = target: Intestinal-type alkaline phosphatase (Homo sapiens, UniProt P09923); test: activation of human intestinal alkaline phosphatase – biochemical, dose response (AID 488873); format: functional
[13] = cells; format: functional
[14] = target: T6, Short transient receptor potential channel 4 (Mus musculus, UniProt Q9QUQ5); test: mouse TRPC4 channel activators, dose response, cell-based, HEK293 TRPC4/mu-opioid, Fluo-4 calcium (AID 434937); format: functional
T6 sequence (Q9QUQ5 whole entry): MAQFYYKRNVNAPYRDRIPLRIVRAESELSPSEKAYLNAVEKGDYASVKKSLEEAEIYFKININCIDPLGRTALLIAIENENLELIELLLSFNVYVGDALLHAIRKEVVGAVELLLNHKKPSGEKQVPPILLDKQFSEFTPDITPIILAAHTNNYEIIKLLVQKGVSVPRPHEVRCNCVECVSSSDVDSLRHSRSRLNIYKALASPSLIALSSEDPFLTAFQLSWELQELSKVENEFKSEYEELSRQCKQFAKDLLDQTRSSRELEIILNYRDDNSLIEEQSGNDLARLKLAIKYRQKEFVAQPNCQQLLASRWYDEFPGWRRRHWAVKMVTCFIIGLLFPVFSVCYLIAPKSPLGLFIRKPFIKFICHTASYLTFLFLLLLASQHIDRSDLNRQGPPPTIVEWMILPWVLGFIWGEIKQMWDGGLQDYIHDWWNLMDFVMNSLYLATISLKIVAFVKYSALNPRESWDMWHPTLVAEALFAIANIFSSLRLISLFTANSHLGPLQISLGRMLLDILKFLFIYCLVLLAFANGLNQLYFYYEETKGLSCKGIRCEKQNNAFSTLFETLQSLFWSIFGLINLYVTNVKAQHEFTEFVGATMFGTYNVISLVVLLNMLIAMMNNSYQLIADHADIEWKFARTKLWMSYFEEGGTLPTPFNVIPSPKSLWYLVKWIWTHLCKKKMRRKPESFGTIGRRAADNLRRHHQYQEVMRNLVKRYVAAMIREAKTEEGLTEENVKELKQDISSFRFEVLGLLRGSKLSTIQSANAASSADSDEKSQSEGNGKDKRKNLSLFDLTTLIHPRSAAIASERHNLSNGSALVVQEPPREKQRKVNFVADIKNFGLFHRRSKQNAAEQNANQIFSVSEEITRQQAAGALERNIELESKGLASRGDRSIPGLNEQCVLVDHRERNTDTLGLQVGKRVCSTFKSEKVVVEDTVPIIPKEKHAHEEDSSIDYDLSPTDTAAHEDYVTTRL

[15] = THP-1 cell cytotoxicity, dose response, cytotoxicity control for non-replicating M. tuberculosis project (AID 489025); format: functional
[16] = system: Streptococcus; test: Group A Streptococcus viability loss, dose response, counter-screen for streptokinase expression inhibitor project, luminescence, BacTiterGlo (AID 1915); format: functional, organism-based;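 also: potency for reduction of bacterial viability or growth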
[17] = system: Streptococcus sp. 'group A'; test: growth inhibition of control SK(-) GAS strain, dose response, counter-screen for streptokinase expression inhibitor project, luminescence, kanamycin, BacTiterGlo, confirmation (AID 1900); format: functional, organism-based
[18] = Vero E6 cell cytotoxicity, dose response, cytotoxicity control for non-replicating M. tuberculosis project, secondary assay (AID 492998); format: functional, VeroE6; conditions: Vero C1008

Chain of Cytochrome P450 2C19 (P33261 whole entry): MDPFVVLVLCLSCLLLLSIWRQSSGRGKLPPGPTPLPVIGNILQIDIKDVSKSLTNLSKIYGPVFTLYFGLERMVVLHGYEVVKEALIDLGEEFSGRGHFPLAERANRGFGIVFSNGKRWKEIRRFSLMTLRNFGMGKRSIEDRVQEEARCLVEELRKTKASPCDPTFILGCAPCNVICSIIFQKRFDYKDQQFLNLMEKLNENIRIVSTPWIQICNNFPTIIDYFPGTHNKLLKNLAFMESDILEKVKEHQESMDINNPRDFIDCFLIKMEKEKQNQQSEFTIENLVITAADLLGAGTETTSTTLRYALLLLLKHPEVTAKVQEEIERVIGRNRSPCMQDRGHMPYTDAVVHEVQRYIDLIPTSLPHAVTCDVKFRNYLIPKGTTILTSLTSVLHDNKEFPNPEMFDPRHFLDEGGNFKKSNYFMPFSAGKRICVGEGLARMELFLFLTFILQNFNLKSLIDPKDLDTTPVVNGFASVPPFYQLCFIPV
Chain of Cytochrome P450 2D6 (P10635 whole entry): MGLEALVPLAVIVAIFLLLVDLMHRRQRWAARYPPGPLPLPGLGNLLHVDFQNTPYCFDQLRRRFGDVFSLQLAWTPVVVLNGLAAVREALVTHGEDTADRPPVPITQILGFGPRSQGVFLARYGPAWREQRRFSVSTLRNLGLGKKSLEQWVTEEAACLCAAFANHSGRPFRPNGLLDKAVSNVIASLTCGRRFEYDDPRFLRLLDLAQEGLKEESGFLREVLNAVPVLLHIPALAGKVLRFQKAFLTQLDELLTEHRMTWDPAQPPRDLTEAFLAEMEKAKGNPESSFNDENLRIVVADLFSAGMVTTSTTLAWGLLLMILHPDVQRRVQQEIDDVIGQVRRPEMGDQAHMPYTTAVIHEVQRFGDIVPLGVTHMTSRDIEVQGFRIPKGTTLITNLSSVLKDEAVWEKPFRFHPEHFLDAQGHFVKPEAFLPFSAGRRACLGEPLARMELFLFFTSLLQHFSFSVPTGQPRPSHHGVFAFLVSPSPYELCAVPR
Chain of Intestinal-type alkaline phosphatase (Homo sapiens, UniProt P09923) (P09923 whole entry): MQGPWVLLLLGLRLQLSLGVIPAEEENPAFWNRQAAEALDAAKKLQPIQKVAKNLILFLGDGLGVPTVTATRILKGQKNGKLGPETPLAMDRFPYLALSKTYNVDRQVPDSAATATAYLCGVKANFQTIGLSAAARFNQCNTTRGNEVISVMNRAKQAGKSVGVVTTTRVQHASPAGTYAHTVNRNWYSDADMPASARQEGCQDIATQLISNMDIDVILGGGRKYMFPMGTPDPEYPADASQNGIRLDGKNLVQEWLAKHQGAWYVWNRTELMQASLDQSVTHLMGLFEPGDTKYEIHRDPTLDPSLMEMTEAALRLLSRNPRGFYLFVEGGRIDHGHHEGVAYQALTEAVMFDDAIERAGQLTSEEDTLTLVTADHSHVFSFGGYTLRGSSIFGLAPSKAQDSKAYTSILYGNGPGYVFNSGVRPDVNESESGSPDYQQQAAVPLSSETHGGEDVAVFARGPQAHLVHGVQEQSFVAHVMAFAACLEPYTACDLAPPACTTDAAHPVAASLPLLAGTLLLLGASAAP
Chain of Intestinal-type alkaline phosphatase (Mus musculus, UniProt P24822) (P24822 whole entry): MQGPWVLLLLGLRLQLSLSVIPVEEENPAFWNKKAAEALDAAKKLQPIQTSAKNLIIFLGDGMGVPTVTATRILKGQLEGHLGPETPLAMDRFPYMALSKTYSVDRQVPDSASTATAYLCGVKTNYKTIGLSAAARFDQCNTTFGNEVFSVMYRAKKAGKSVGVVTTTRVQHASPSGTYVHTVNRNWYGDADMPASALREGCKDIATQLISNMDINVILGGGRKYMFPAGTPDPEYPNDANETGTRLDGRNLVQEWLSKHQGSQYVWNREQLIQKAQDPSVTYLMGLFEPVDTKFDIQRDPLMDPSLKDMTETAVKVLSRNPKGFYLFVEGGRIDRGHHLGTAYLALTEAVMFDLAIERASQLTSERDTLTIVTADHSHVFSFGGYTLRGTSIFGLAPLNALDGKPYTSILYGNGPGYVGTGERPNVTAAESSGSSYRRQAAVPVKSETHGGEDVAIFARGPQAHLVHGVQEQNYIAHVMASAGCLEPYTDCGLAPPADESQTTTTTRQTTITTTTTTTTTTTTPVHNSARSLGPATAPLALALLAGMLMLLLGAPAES

CC(=O)Nc1ccc(SCC(=O)Nc2ccc(Cl)cn2)cc1
IC50 [1]: > 79.4 µM (inactive) | IC50 [2]: > 79.4 µM (inactive) | IC50 [3]: > 79.4 µM (inactive)

O=C(O)c1cc(/N=N\c2ccc([As](=O)(O)O)cc2)ccc1O
AC50 [4]: inconclusive | AC50 [5]: inconclusive

NNC(=O)c1cc(O)c(O)c(O)c1
EC50 [6]: 8.04 µM (active) | EC50 [7]: 69.3 µM (active) | AC50 [8]: 5.41 µM (active) | EC50 [9]: > 38 µM (not active) | EC50 [10]: 41.7 µM (active) | AC50 [11]: 2.43 µM (active) | EC50 [12]: 82.6 µM (active)

Cc1ccc(C(=O)NNC(=S)NC(=O)c2ccc(Cl)cc2)cc1
IC50 [13]: < 0.1 µM (active) | AC50 ([4]; read-out: AC50): 35.5 µM (inconclusive) | EC50 [14]: 2.11 µM (active) | CC50 [15]: 22.9 µM (active) | EC50 [16]: 3.71 µM (active) | AC50 [5]: inconclusive | EC50 [17]: 0.182 µM (active) | CC50 [18]: 17 µM (active)

Cc1ccc(OCC(=O)N/N=C\c2ccco2)c(C)c1
IC50 [1]: > 79.4 µM (inactive) | IC50 [2]: > 79.4 µM (inactive) | IC50 [3]: > 79.4 µM (inactive)
